Laboratory results published in patent US9339033B2, “1-aryl-5-alkyl pyrazole derivative compounds, processes of making and methods of using thereof” (MERIAL, INC., priority 2007, dated 2016).

Assays:
[1] = system: green peach aphid (Myzus persicae); test: Method J: Myzus persicae test (spray application); assay type: in vivo; details: concentration of 500 g/ha, spray on infected Chinese cabbage leaf-disks
Excerpt: Method J: Myzus persicae Test (Spray Application)
100% means that all aphids have been killed; 0% means that none of the aphids have been killed.

[2] = system: western flower thrips (Frankliniella occidentalis); test: Method L: Frankliniella occidentalis test (spray application); assay type: in vivo; details: concentration of 500 g/ha, spray on French bean leaf-disks
Excerpt: Method L: Frankliniella occidentalis Test (Spray Application)
French bean (Phaseolus vulgaris) leaf-disks are sprayed with a test solution containing the desired concentration of the active ingredient. Once dry, the leaf disks are infested with western flower thrips (Frankliniella occidentalis).
100% means that all the thrips have been killed; 0% means that none of the thrips have been killed.

[3] = system: Rhipicephalus sanguineus (Brown Dog Tick); test: Method A: contact activity against ticks; assay type: in vivo; details: 48 h; for LC50: read-out: LD50; for pest or weed control at 25 µg/mL: read-out: control of Rhipicephalus sanguineus
Excerpt: • Method of Use Examples Method A: Screening Method to Test Contact Activity of Compounds Against Ticks
A solution of the test compound was used to coat the inner wall of glass vials and to treat two filter papers. Once dried, one filter paper was placed in the cap of the vial and the other in the bottom of the vial. Each treated vial was infested with 10 adult Rhipicephalus sanguineus (Brown Dog Tick). Contact of the ticks with residues was induced by holding the vials in a controlled environment (24° C., 90-95% relative humidity) and assessment was performed at 24, 48 hours after application in comparison with untreated controls.

Ctenocephalides felis = test: Method B: contact activity against fleas; assay type: in vivo; details: 72 hours assessment
Experimental: Method B: Screening Method to Test Contact Activity of Compounds Against Fleas
A solution of the test compound was dispensed, using a pipette, onto filter paper placed into a glass vial. The filter paper was allowed to dry before infesting each vial with 10 adult Ctenocephalides felis. The treated Ctenocephalides felis were held in a controlled environment (24° C., 90-95% relative humidity) and assessment was performed at 24, 48 and 72 hours after application in comparison with untreated controls.

[4] = system: am. serpentine leaf miner (Liriomyza trifolii); test: Method M: Liriomyza trifolii test (spray application); assay type: in vivo; details: concentration of 500 g/ha, spray on infested French bean leaf-disks
Excerpt: Method M: Liriomyza trifolii Test (Spray Application)
French bean (Phaseolus vulgaris) leaf-disks infested with larvaes of the am. serpentine leaf miner (Liriomyza trifolii) are sprayed with a test solution containing the desired concentration of the active ingredient.
100% means that all the leaf miners have been killed; 0% means that none of the leaf miners have been killed.

[5] = system: fall armyworm larvae (Spodoptera frugiperda); test: Method I: Spodoptera frugiperda test (spray application); assay type: in vivo; details: concentration of 500 g/ha, spray on maize leaf sections
Excerpt: Method I: Spodoptera frugiperda Test (Spray Application)
Maize (Zea mais) leaf sections are sprayed with a preparation of the active ingredient of the desired concentration. Once dry, the leaf sections are infested with fall armyworm larvae (Spodoptera frugiperda).

[6] = cited from earlier work
[7] = system: two spotted spidermite (Tetranychus urticae); test: Method K: Tetranychus urticae test; OP-resistant (spray application); details: read-out: activity (mortality in %), Tetranychus urticae
Experimental: Method K: Tetranychus urticae Test; OP-Resistant (Spray Application)
French beans (Phaseolus vulgaris) which are heavily infested with all stages of the two spotted spidermite (Tetranychus urticae), are sprayed with a preparation of the active ingredient at the desired concentration.
After the specified period of time, mortality in % is determined. 100% means that all spider mites have been killed and 0% means that none of the spider mites have been killed.

Compound | mortality at 500 g/ha [1] [%] | mortality at 500 g/ha [2] [%] | LC50 [3] [µg/mL] | pest or weed control at 25 µg/mL [3] [%] | LD50 (Ctenocephalides felis) | mortality at 500 g/ha [4] [%] | mortality at 500 g/ha [5] [%] | oral LD50 [6] | mortality at 100 g/ha [7] [%]
Cc1c([S+]([O-])C(F)(F)F)c(C#N)nn1-c1c(Cl)cc(OC(F)(F)F)cc1Cl (stereo not shown) [Compound 19, 3-Cyano-1-(2,6-dichloro-4-trifluoromethoxyphenyl)-5-methyl-4-trifluoromethylsulfinylpyrazole] | ≥ 80 | ≥ 80 | < 6 | ≥ 80 |  |  |  |  | 
N#Cc1nn(-c2c(Cl)cc(C(F)(F)F)cc2Cl)c(CF)c1SC(F)(F)F [Compound 3, 3-cyano-1-(2,6-dichloro-4-trifluoromethylphenyl)-5-fluoromethyl-4-trifluoromethylthiopyrazole] | ≥ 80 | ≥ 80 | < 6 | ≥ 80 |  |  |  |  | 
N#Cc1nn(-c2c(F)cc(C(F)(F)F)cc2Cl)c(CF)c1[S+]([O-])C(F)(F)F (stereo not shown) [Compound 11, 1-(2-Chloro-6-fluoro-4-trifluoromethylphenyl)-3-cyano-5-fluoromethyl-4-trifluoromethylsulfinylpyrazole] | ≥ 80 |  | < 6 | ≥ 80 |  |  |  |  | 
N#Cc1nn(-c2c(Cl)cc(C(F)(F)F)cc2Cl)c(N)c1[S+]([O-])C(F)(F)F (stereo not shown) [fipronil] |  |  |  |  | around 20 ppm |  |  |  | 
N#Cc1nn(-c2c(Cl)cc(OC(F)(F)F)cc2Cl)c(CF)c1SC(F)(F)F [Compound 16, 3-Cyano-1-(2,6-dichloro-4-trifluoromethoxyphenyl)-5-fluoromethyl-4-trifluoromethylthiopyrazole] | ≥ 80 | ≥ 80 | < 6 | ≥ 80 |  |  |  |  | 
Cc1c(SC(F)(F)F)c(C#N)nn1-c1c(F)cc(C(F)(F)F)cc1Cl [Compound 7, 1-(2-Chloro-6-fluoro-4-trifluoromethylphenyl)-3-cyano-5-methyl-4-trifluoromethylthiopyrazole] | ≥ 80 | ≥ 80 | < 6 | ≥ 80 |  |  |  |  | 
Cc1c(SC(F)(F)F)c(C#N)nn1-c1c(F)cc(C(F)(F)F)cc1F [Compound 6, 3-cyano-1-(2,6-difluoro-4-trifluoromethylphenyl)-5-methyl-4-trifluoromethylthiopyrazole] | ≥ 80 | ≥ 80 | < 6 | ≥ 80 |  |  |  |  | 
Cc1c(SC(F)(F)F)c(C#N)nn1-c1c(Cl)cc(OC(F)(F)F)cc1Cl [Compound 17, 3-Cyano-1-(2,6-dichloro-4-trifluoromethoxyphenyl)-5-methyl-4-trifluoromethylthiopyrazole] | ≥ 80 |  | < 6 | ≥ 80 |  |  |  |  | 
Cc1cc(C(F)(F)F)cc(Cl)c1-n1nc(C#N)c(SC(F)(F)F)c1C [Compound 43, 1-(2-chloro-6-methyl-4-trifluoromethylphenyl)-3-cyano-5-methyl-4-trifluoromethylthiopyrazole] | ≥ 80 |  | < 6 | ≥ 80 |  |  |  |  | 
N#Cc1nn(-c2c(Cl)cc(OC(F)(F)F)cc2Cl)c(CF)c1[S+]([O-])C(F)(F)F (stereo not shown) [Compound 18, 3-Cyano-1-(2,6-dichloro-4-trifluoromethoxyphenyl)-5-fluoromethyl-4-trifluoromethylsulfinylpyrazole] | ≥ 80 |  | < 6 | ≥ 80 |  |  |  |  | 
N#Cc1nn(-c2c(Cl)cc(C(F)(F)F)cc2Cl)c(CF)c1[S+]([O-])C(F)(F)F (stereo not shown) [Compound 10, 3-Cyano-1-(2,6-dichloro-4-trifluoromethylphenyl)-5-fluoromethyl-4-trifluoromethylsulfinylpyrazole] | ≥ 80 | ≥ 80 | < 6 | ≥ 80 |  | ≥ 80 | ≥ 80 |  | 
Cc1c(SC(F)(F)F)c(C#N)nn1-c1c(Cl)cc(C(F)(F)F)cc1Cl [Compound 1, 3-Cyano-1-(2,6-dichloro-4-trifluoromethylphenyl)-5-methyl-4-trifluoromethylthiopyrazole] | ≥ 80 | ≥ 80 | < 6 | ≥ 80 |  |  |  |  | 
Cc1c([S+]([O-])C(F)(F)F)c(C#N)nn1-c1c(F)cc(C(F)(F)F)cc1F (stereo not shown) [Compound 12, 3-Cyano-1-(2,6-difluoro-4-trifluoromethylphenyl)-5-methyl-4-trifluoromethylsulfinylpyrazole] | ≥ 80 | ≥ 80 | < 6 | ≥ 80 |  |  |  |  | 
N#Cc1nn(-c2c(F)cc(C(F)(F)F)cc2Cl)c(CF)c1SC(F)(F)F [Compound 8, 1-(2-Chloro-6-fluoro-4-trifluoromethylphenyl)-3-cyano-5-fluoromethyl-4-trifluoromethylthiopyrazole] | ≥ 80 | ≥ 80 | < 6 | ≥ 80 |  |  |  |  | 
Cc1c(S(=O)(=O)C(F)(F)F)c(C#N)nn1-c1c(Cl)cc(C(F)(F)F)cc1Cl [Compound 4, 3-cyano-1-(2,6-dichloro-4-trifluoromethylphenyl)-5-methyl-4-trifluoromethylsulfonylpyrazole] | ≥ 80 | ≥ 80 | < 6 | ≥ 80 |  |  |  |  | 
N#Cc1ccc(CC(=NNC(=O)Nc2ccc(OC(F)(F)F)cc2)c2cccc(C(F)(F)F)c2)cc1 (mixture of isomers) [Metaflumizone] |  |  |  |  |  |  |  | > 5,000 mg/kg | 
Cc1cc(C(F)(F)F)cc(Cl)c1-n1nc(C#N)c([S+]([O-])C(F)(F)F)c1C (stereo not shown) [Compound 44, 1-(2-Chloro-6-methyl-4-trifluoromethylphenyl)-3-cyano-5-methyl-4-trifluoromethylsulfinylpyrazole] | ≥ 80 | ≥ 80 | < 6 | ≥ 80 |  |  |  |  | 
Cc1c([S+]([O-])C(F)(F)F)c(C#N)nn1-c1c(Cl)cc(C(F)(F)F)cc1Cl (stereo not shown) [Compound 5, 3-cyano-1-(2,6-dichloro-4-trifluoromethylphenyl)-5-methyl-4-trifluoromethylsulfinylpyrazole] | ≥ 80 | ≥ 80 | < 6 | ≥ 80 |  |  | ≥ 80 |  | 
Cc1c([S+]([O-])C(F)(F)F)c(C#N)nn1-c1c(F)cc(C(F)(F)F)cc1Cl (stereo not shown) [Compound 9, 1-(2-Chloro-6-fluoro-4-trifluoromethylphenyl)-3-cyano-5-methyl-4-trifluoromethylsulfinylpyrazole] | ≥ 80 | ≥ 80 | < 6 | ≥ 80 |  |  |  |  | 
Cc1c([S+]([O-])C(F)(F)F)c(C#N)nn1-c1ccc(C(F)(F)F)cc1F (stereo not shown) [Compound 14, 3-Cyano-1-(2-fluoro-4-trifluoromethylphenyl)-5-methyl-4-trifluoromethylsulfinylpyrazole] | ≥ 80 |  | < 6 | ≥ 80 |  |  |  |  | ≥ 80
